Laboratory results: PMC8833744, “Strategic Decoy Peptides Interfere with MSI1/AGO2 Interaction to Elicit Tumor Suppression Effects” (Cancers, 2022)
Residues, ends and D or L forms follow the SMILES beside them. No end group written: not given here. *: point of attachment. 5FAM = O=C1OC2(c3ccc(O)cc3Oc3cc(O)ccc32)c2ccc(C(=O)*)cc21

How the values were obtained:
[1] = molecular target: T1, endogenous AGO2 (Homo sapiens, UniProt Q9UKV8); assay: Confocal immunofluorescence of 5′FAM-tagged peptides: cell entry and co-localization with AGO2; assay type: cell-based; details: 10 µM 5′FAM-tagged peptide
T1 construct: endogenous in cells
Text: (§1) Other general procedures not detailed above including plasmid constructions, transfection, co-immunoprecipitation, RNA extraction, quantitative real-time PCR (qRT-PCR), gene expression analysis, Western blotting, immunofluorescence (IF) staining, and immunohistochemistry staining (IHC) were described previously.

[2] = molecular target: T2, MSI1/AGO2 interaction (M-NGluc / A-CGluc) (Homo sapiens, UniProt Q9UKV8); assay: Split Gaussia luciferase reconstitution assay of MSI1/AGO2 interaction; assay type: cell-based; details: IVIS; for reconstituted luciferase luminescence versus non-treated or CP-treated cells: tat-conjugated peptides, cisplatin-induced stress (30 µM)
T2 construct: expressed in transfected cells; pcDNA 3.1 and pCMV backbones
Text: We applied a gaussia luciferase (Gluc) system to detect protein–protein interaction between MSI1 and AOG2. We split gaussia luciferase into two fragments: the 106 a.a. N-terminus (NGluc) and the 79 a.a. C-terminus (CGluc). After polymerase chain reaction (PCR) amplification, the NGluc and CGluc were subjected to construct fusion protein with MSI1 and AGO2, respectively, in the pcDNA 3.1 and pCMV backbone. Each fusion protein contains a flexible linker (GGGGS) 2 between the protein and polypeptides of split luciferase. We stably transfected both fusion protein expression plasmids in DBTRG-05MG GBM cell line and generated a stable cell line with Hygromycin B (Sigma Aldrich Co., St. Louis, MI, USA) and G418 sulfate (Merck Co., […], Germany). We established a normalizing standard by transducing multiple reporter genes into the generated stable cell line for stably expressing green fluorescent protein (GFP), firefly luciferase (FLuc), and herpes simplex virus type I thymidine kinase (HSV1-tk) using lentivirus as previously described. For in vitro MSI1/AGO2 interaction study in cells, cell lysates were prepared with mild reporter lysis buffer (Promega Co., Madison, WI, USA) with a frozen–thaw cycle. The supernatant was then collected after centrifugation and dispensed in a 96-well black flat bottom plate. Coelenterazine (Nanolight Technologies, Ltd., Pinetop, AZ, USA), the substrate of GLuc, was firstly dissolved in methanol and diluted in reporter assay buffer (15 mM potassium phosphate, 25 mM glycylglycine, 15 mM MgSO4, 4 mM EDTA). D-luciferin sodium salt (Promega Co., Madison, WI, USA) was dissolved in sterilized water and diluted in reporter assay buffer supplemented with 2mM ATP. The bioluminescent signals were acquired by Wallac 1420 Victor2 Microplate Reader (Perkin Elmer, Waltham, MA, USA) equipped with auto-dispenser to avoid rapid decay of Gluc.

[3] = test system: DBTRG-05MG cells; assay: Time-lapse cellular uptake of 5′FAM-labeled peptides; assay type: in vitro ADME, human; details: 5′FAM-labeled peptide, time-lapse confocal and fluorescence by ELISA reader, n = 3 per time point
[4] = molecular target: T3, His-tagged recombinant AGO2 (Homo sapiens, UniProt Q9UKV8); assay: PepSpot peptide tiling array incubated with His-tagged AGO2; assay type: binding; details: 15-mer peptides on nitrocellulose, 2 μg His-AGO2 overnight, HRP anti-6×His
Protocol: To rapidly screen the putative binding hotspots along the C-terminus of MSI1, we mimicked the epitope screening method by dotting the synthetic short peptides on nitrocellulose membrane and incubated with purified AGO2 protein [49]. The C-terminus of MSI1 (200–362) was divided into 27 individual synthetic peptides with N-terminal amine attached on the nitrocellulose. Each peptide is 15 amino acids in length and has eight amino acids overlapping with the previous neighboring peptide (Table S1). The purchased PepSpot membrane (JPT peptide technologies, Berlin, Germany) was firstly rinsed in methanol for 5 min, followed by Tris buffer saline supplemented with 0.1% Tween-20 (TBS-T) washing thrice. The membrane was then blocked by Superblock T20 blocking buffer (Thermo Fisher Scientific Inc., Waltham, MA, USA) for 2 h and 2 μg His-tagged AGO2 recombinant protein was added for an overnight incubation. The membrane was washed thrice with TBS-T and incubated with horseradish peroxidase (HRP)-conjugated 6×His tag primary antibody (Genetex Inc., Hsinchu, Taiwan) for 4 h under 4 °C. Enhanced chemiluminescent reagent was used for further blotting.

[5] = test system: DBTRG-05MG cell line; assay: Concentration-dependent cellular uptake (half-uptake concentration EC50); assay type: in vitro ADME, human; details: Figure 6A,B legend, fluorescein labeled peptides, ELISA reader
[6] = test system: CCND1, CDK4, HELLS, NF2, TP53, p21 mRNA; assay: qRT-PCR of downstream mRNA targets of the MSI1-AGO2 complex under hypoxia; assay type: cell-based, human; details: peptide transfection in DBTRG-05MG cells, hypoxia versus normoxia
Protocol: In vitro binding assay was carried out with N-terminal biotinylated synthetic peptides (Table S3) based on our peptide array screening. The synthesized peptides (Thermo Fisher Scientific Inc., Waltham, MA, USA) were dissolved in 10% DMSO by 1 mg/mL and subjected to incubation with an equal amount of AGO2 recombinant protein (2 μg each) in T20 blocking solution (Thermo Fisher Scientific Inc., Waltham, MA, USA). After 16 h incubation, the peptides were pulled down with immobilized streptavidin (Pierce 21115, Thermo Fisher Scientific Inc., Waltham, MA, USA). The precipitated peptide/protein complex was subjected to immunoblotting with 6×His primary antibody (GeneTex Inc., Hsinchu, Taiwan) hybridization and detection. Peptide transfection was carried out with Proteojuice (Millipore 71281, Merck Co., Darmstadt, Germany) following the manufacturer’s instruction. For the in vivo compatible cell-penetrating peptide (CPP)-modified peptides, we tested two different CPPs at the C-terminal ends, including TAT (48–60) from HIV [55, 56, 57].
as §1

[7] = molecular target: T4, MSI1/AGO2 interaction (Homo sapiens, UniProt Q9UKV8); assay: Co-immunoprecipitation competition of MSI1/AGO2 complex in cells; assay type: cell-based; details: cells treated with 10 µM peptide, hypoxic condition
T4 construct: endogenous in cells
Text: as §1

[8] = test system: DBTRG-05MG cells; assay: Degradation of 5′FAM-labeled peptides in cells; assay type: in vitro ADME, human; details: 5′FAM-labeled peptide, cells followed up to 6 h, fluorescence by ELISA reader, three independent experiments
[9] = molecular target: T3, His-tagged recombinant AGO2; assay: Surface plasmon resonance (Biacore T200) binding of peptides to AGO2; details: for kon: read-out: ka (association rate constant); for koff: read-out: kd (dissociation rate constant)
Protocol: Surface Plasmon Resonance (SPR) was utilized using Biacore T200 (GE Healthcare) to study binding affinities between decoy peptides Pep#11 and Pep#26 peptides with recombinant His-tagged AGO2 protein. The recombinant His-AGO2 and MSI1 peptides were diluted in HBS-P buffer (10 mM HEPES, 150 mM NaCl and 0.005% T20, pH 7.4). To evaluate the binding affinity, recombinant His-AGO2 was immobilized on a CM5 sensor chip (GE Healthcare, BR100012) via amine coupling (~7000 RU) for 3600 s at a rate of 5 µL/mins, and flow rate for binding analysis was run at 30 µL/mins. After injection of each peptide, the surface was regenerated with an injection of 10 mM NaOH. All sensorgrams were double referenced by subtracting the surface effect from the control flow […] and the buffer effect form the blank buffer. The kinetic values ka, kd, and KD were obtained using Biacore T200 Evaluation Software (GE healthcare) assuming the Langmuir 1:1 binding model.

T3 sequence (Q9UKV8 whole entry): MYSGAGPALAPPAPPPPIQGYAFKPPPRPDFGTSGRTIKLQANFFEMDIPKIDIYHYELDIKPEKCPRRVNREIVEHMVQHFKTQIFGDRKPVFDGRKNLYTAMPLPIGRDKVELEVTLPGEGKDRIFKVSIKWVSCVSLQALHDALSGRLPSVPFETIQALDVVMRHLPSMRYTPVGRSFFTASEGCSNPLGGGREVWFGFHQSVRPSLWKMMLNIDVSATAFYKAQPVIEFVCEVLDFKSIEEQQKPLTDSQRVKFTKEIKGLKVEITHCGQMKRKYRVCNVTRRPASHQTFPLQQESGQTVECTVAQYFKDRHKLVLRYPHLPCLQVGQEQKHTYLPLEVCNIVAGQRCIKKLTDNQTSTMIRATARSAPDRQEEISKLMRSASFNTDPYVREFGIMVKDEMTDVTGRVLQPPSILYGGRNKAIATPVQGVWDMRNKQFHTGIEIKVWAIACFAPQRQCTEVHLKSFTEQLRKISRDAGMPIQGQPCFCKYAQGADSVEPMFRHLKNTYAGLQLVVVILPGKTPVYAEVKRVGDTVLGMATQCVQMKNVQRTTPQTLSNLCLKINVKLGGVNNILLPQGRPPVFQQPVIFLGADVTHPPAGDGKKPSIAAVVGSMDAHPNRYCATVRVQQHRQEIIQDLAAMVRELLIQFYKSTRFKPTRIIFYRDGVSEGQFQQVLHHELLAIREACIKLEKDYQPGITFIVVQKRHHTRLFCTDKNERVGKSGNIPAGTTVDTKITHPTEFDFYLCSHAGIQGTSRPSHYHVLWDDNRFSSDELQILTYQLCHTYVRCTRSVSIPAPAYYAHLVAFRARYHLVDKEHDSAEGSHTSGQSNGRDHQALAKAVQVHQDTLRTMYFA
T1 sequence (Q9UKV8 whole entry): as above
T2 sequence (Q9UKV8 whole entry): as above
T4 sequence (Q9UKV8 whole entry): as above

Molecule | entry into cells (confocal microscopy) [1] | binding to AGO2 on the peptide array (immunoblot) [4] | EC50 [5] [µM] | effect of hypoxia-induced MSI1/AGO2 complex on downstream mRNAs (CCND1, CDK4, HELLS, NF2, TP53, p21) [6] | reconstituted luciferase luminescence versus non-treated or CP-treated cells [2] | interference with MSI1/AGO2 binding complex formation (Co-IP immunoblot) [7] | time of significant degradation in the cells (change in 5′FAM fluorescence) [8] | kon [9] [M⁻¹ s⁻¹] | koff [9] [s⁻¹] | also measured
CC[C@H](C)[C@H](NC(=O)[C@H](CC(C)C)NC(=O)[C@@H]1CCCN1C(=O)CNC(=O)CNC(=O)[C@H](CC(C)C)NC(=O)[C@H](CO)NC(=O)[C@H](Cc1c[nH]cn1)NC(=O)c1ccc2c(c1)C(=O)OC21c2ccc(O)cc2Oc2cc(O)ccc21)C(=O)N[C@@H](C)C(=O)N[C@H](C(=O)N[C@@H](C)C(=O)N[C@@H](Cc1ccccc1)C(=O)N[C@H](C(=O)N[C@@H](CC(N)=O)C(=O)NCC(=O)NCC(=O)N[C@@H](CCCNC(=N)N)C(=O)N[C@@H](CCCCN)C(=O)N[C@@H](CCCCN)C(=O)N[C@@H](CCCNC(=N)N)C(=O)N[C@@H](CCCNC(=N)N)C(=O)N[C@@H](CCC(N)=O)C(=O)N[C@@H](CCCNC(=N)N)C(=O)N[C@@H](CCCNC(=N)N)C(=O)N[C@@H](CCCNC(=N)N)C(=O)N1CCC[C@H]1C(=O)N1CCC[C@H]1C(=O)N[C@@H](CCC(N)=O)C(=O)O)[C@@H](C)O)[C@@H](C)O [5′FAM-Pep#26] (5FAM-HSLGGPLIATAFTNGGRKKRRQRRRPPQ-OH) | capable of entering the cells | – | – | – | – | – | – | – | – | –
CC(C)C[C@H](NC(=O)[C@@H]1CCCN1C(=O)[C@@H](NC(=O)[C@H](CCCNC(=N)N)NC(=O)[C@H](CCC(=O)O)NC(=O)[C@@H](NC(=O)[C@H](CCCNC(=N)N)NC(=O)[C@H](Cc1ccccc1)NC(=O)[C@H](CCC(=O)O)NC(=O)[C@@H]1CCCN1C(=O)[C@H](Cc1ccccc1)NC(=O)[C@H](CCC(N)=O)NC(=O)[C@H](Cc1ccc(O)cc1)NC(=O)c1ccc2c(c1)C(=O)OC21c2ccc(O)cc2Oc2cc(O)ccc21)C(C)C)[C@@H](C)O)C(=O)N1CCC[C@H]1C(=O)N[C@@H](CO)C(=O)NCC(=O)N[C@@H](CCCNC(=N)N)C(=O)N[C@@H](CCCCN)C(=O)N[C@@H](CCCCN)C(=O)N[C@@H](CCCNC(=N)N)C(=O)N[C@@H](CCCNC(=N)N)C(=O)N[C@@H](CCC(N)=O)C(=O)N[C@@H](CCCNC(=N)N)C(=O)N[C@@H](CCCNC(=N)N)C(=O)N[C@@H](CCCNC(=N)N)C(=O)N1CCC[C@H]1C(=O)N1CCC[C@H]1C(=O)N[C@@H](CCC(N)=O)C(=O)O [5′FAM-Pep#11] (5FAM-YQFPEFRVERTPLPSGRKKRRQRRRPPQ-OH) | capable of entering the cells | – | – | – | – | – | – | – | – | subcellular co-localization with AGO2 ([1]; confocal microscopy): co-localized with endogenous AGO2 in the cytosol
N.N.[Cl][Pt][Cl] [cisplatin, reference compound] | – | – | – | – | – | – | – | – | – | luciferase luminescence versus PBS-treated group ([2]; cells overexpressing M-NGluc and A-CGluc, 30 µM cisplatin): significantly greater luminescence
YQFPEFRVERTPLPSGRKKRRQRRRPPQ [Pep#11] | – | strongest binding peptides | 9.1 | reversed | significantly lower | completely abolished | within the first half an hour | 32600 | 0.0168 | time of significant increases in cellular uptake [3]: within the first hour
GSHPWTMAPPPGSTPGRKKRRQRRRPPQ [CP, reference compound] | – | – | – | – | – | – | – | 42500 | 4.53 | –
HSLGGPLIATAFTNGGRKKRRQRRRPPQ [Pep#26] | – | strongest binding peptides | 9 | reversed | significantly lower | completely abolished | within the first half an hour | 3160 | 0.00213 | –
